Results on eight molecules are retold here after US20240381872A1, “SUBSTITUTED 2,3-DIHYDRO[1,3]THIAZOLO[4,5-B]PYRIDINES, SALTS THEREOF AND THEIR USE AS HERBICIDALLY ACTIVE SUBSTANCES” (BAYER AKTIENGESELLSCHAFT, priority 2021, published 2024).

Holding throughout (type): in vivo
The subject of assay [1] is Echinochloa crus-galli (ECHCG). Nature of the assay: Herbicidal pre-emergence action, section C (Table C3). The following applies: visual grading after ca. 3 weeks vs untreated controls. In a few lines: (§1)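 Greenhouse pre-emergence test on sandy loam: spray of formulated compound onto covering soil at 600 l water/ha, then percent damage judged by eye after ca. 3 weeks relative to untreated pots.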

For assay [2], the system named is Veronica persica (VERPE). Nature of the assay: Herbicidal post-emergence action, section E (Table E9). As to conditions: visual assessment ca. 3 weeks after spraying; for pest or weed control at 80 g/ha / pest or weed control at 320 g/ha: Veronica persica, 504 h, read-out: post-emergence activity against VERPE in %; for pest or weed control at 320 g/ha: application rate 320 g/ha. In short, it runs like this: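 Scoring was visual, in percent relative to untreated plants, about three weeks after treatment. Test plants had been sprayed on their green parts at the single-leaf stage with an aqueous formulation including 0.5% additive, applied at 600 l water/ha.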

The test system of assay [3] is Amaranthus retroflexus (AMARE). Kind of assay: Herbicidal pre-emergence action, section C (Table C11). As to conditions: visual grading after ca. 3 weeks; for pest or weed control at 320 g/ha / pest or weed control at 80 g/ha: Amaranthus retroflexus, pre-emergence, 504 h, read-out: pre-emergence activity against AMARE in %; for pest or weed control at 80 g/ha: application rate 80 g/ha. In a few lines:
as §1

The subject of assay [4] is Lolium rigidum (LOLRI). Nature of the assay: Herbicidal pre-emergence action, section C (Table C5). The following applies: visual grading after ca. 3 weeks; for pest or weed control at 80 g/ha / pest or weed control at 320 g/ha: Lolium rigidum, pre-emergence, 504 h, read-out: pre-emergence activity against LOLRI in %; for pest or weed control at 80 g/ha: application rate 80 g/ha. In short, it runs like this:
as §1

Assay [5] concerns Oryza sativa (ORYZA). Nature of the assay: Post-emergence effects on crop plants, section F (Table F3). The following applies: for percent crop plant damage at 320 g/ha / percent crop plant damage at 80 g/ha: Oryza sativa, 504 h, read-out: post-emergence activity against ORYZA in %; for percent crop plant damage at 80 g/ha: application rate 80 g/ha. In a few lines: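 After sowing in sandy loam and 2–3 weeks' greenhouse growth, single-leaf plants received foliar sprays (WP or EC, 0.5% additive, 600 l/ha water, ≤320 g/ha). Around 3 weeks on, herbicidal effect was estimated by eye, 0% meaning like controls and 100% meaning plants died.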

Assay [6] concerns Alopecurus myosuroides (ALOMY). Nature of the assay: Herbicidal pre-emergence action, section A (Table A2). The following applies: visual grading after ca. 3 weeks vs untreated controls; for pest or weed control at 1280 g/ha: Alopecurus myosuroides, pre-emergence, 504 h, application rate 1280 g/ha, read-out: pre-emergence activity against ALOMY in %. In a few lines:
(§2)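 Seeds sown in sandy loam and covered with soil; compounds formulated as WP or EC were applied to the soil surface as aqueous suspension or emulsion with 0.5% additive at 600 l water/ha. Pots kept in greenhouse under optimum conditions; damage scored visually after ca. 3 weeks versus untreated controls (0–100%).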

Assay [7] deals with Veronica persica (VERPE). Nature of the assay: Herbicidal pre-emergence action, section A (Table A10). In short, it runs like this: as §2
Assay [8] relates to Setaria viridis (SETVI). Nature of the assay: Herbicidal pre-emergence action, section A (Table A8). As to conditions: for pest or weed control at 1280 g/ha: application rate 1280 g/ha. In a few lines: as §2
Assay [9] deals with Echinochloa crus-galli (ECHCG). Kind of assay: Herbicidal post-emergence action, section B (Table B3). As to conditions: application rate 1280 g/ha, rated visually after about 3 weeks; for pest or weed control at 1280 g/ha: Echinochloa crus-galli, 504 h, read-out: post-emergence activity against ECHCG in %. In a few lines: (§3)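 In this greenhouse assay, compounds in WP or EC form were applied post-emergence with 0.5% additive at a water rate of 600 liters per hectare. Treatment took place at the one-leaf stage, and injury was rated visually about 3 weeks later against untreated plants.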

Assay [10] has as its system Kochia scoparia (KCHSC). Kind of assay: Herbicidal post-emergence action, section B (Table B4). As to conditions: visual rating about 3 weeks after treatment vs untreated controls; for pest or weed control at 1280 g/ha / pest or weed control at 320 g/ha: Bassia scoparia, post-emergence, 504 h, read-out: post-emergence activity against KCHSC in %; for pest or weed control at 1280 g/ha: application rate 1280 g/ha. In a few lines: as §3

Assay [11] has as its system Digitaria sanguinalis (DIGSA). Kind of assay: Herbicidal post-emergence action, section B (Table B12). As to conditions: visual rating about 3 weeks after treatment vs untreated controls. In a few lines: as §3
Where [12] appears, read: Echinochloa crus-galli, pre-emergence, 504 h, application rate 80 g/ha, read-out: pre-emergence activity against ECHCG in %.
[13] abbreviates: Veronica persica, 504 h, application rate 1280 g/ha, read-out: pre-emergence activity against VERPE in %.
The mark [14] stands for this setting: Setaria viridis, 504 h, read-out: pre-emergence activity against SETVI in %.

As for `Fc1ccccc1-c1nc2c(cc1Br)SCN2` [Example I-001, 6-bromo-5-(2-fluorophenyl)-2,3-dihydro[1,3]thiazolo[4,5-b]pyridine], the pest or weed control at 80 g/ha was 100% in assay [1] (setting [12]), 80% in assay [2] (application rate 80 g/ha) and 100% in [4]. Moreover, in assay [3] (application rate 320 g/ha), the pest or weed control at 320 g/ha stood at 90%. In [5] (application rate 320 g/ha), the percent crop plant damage at 320 g/ha came to 20%.

For the molecule `Cc1cc2c(nc1-c1ccccc1F)NCS2` [Example I-007, 5-(2-fluorophenyl)-6-methyl-2,3-dihydro[1,3]thiazolo[4,5-b]pyridine], the pest or weed control at 1280 g/ha in assay [6] was 100%; in assay [7] (setting [13]), 90%; in [9] it was 90%; in assay [10], 90%. The pest or weed control at 80 g/ha in assay [1] (setting [12]) stood at 100%; in assay [2] (application rate 80 g/ha) it was 80%; in assay [4], 100%. Further, the pest or weed control at 320 g/ha in assay [8] (Setaria viridis, 504 h, application rate 320 g/ha, read-out: pre-emergence activity against SETVI in %) is 100%. In assay [5], the percent crop plant damage at 80 g/ha came to 10%.

For `CCc1ccccc1-c1nc2c(cc1C)[S+]([O-])CN2` (stereo not drawn) [Example I-047], the pest or weed control at 320 g/ha in [2] was determined as 80%; in assay [4] (application rate 320 g/ha), 100%; in assay [10] (application rate 320 g/ha) it was 90%. Further, the pest or weed control at 1280 g/ha in assay [8] (setting [14]) is 100%; in assay [9], 90%. The pest or weed control at 80 g/ha in assay [3] is 90%. Also, the percent crop plant damage at 320 g/ha in assay [5] (application rate 320 g/ha) turned out to be 0%.

In the case of `Cc1cc2c(nc1-c1ccccc1Cl)NCS2` [Example I-049, 5-(2-chlorophenyl)-6-methyl-2,3-dihydro[1,3]thiazolo[4,5-b]pyridine], the pest or weed control at 80 g/ha in [1] (setting [12]) was 100%; in [3] it was 80%; in assay [4], 100%. For the same molecule, the pest or weed control at 320 g/ha in assay [2] is 80%. Further, the percent crop plant damage at 80 g/ha in assay [5] was 20%.

Regarding `CC(=O)N1CSc2cc(Br)c(-c3ccccc3Cl)nc21` [Example I-055, 1-[6-bromo-5-(2-chlorophenyl)[1,3]thiazolo[4,5-b]pyridin-3(2H)-yl]ethanone], the pest or weed control at 1280 g/ha is 90% in [6]; 100% in assay [8] (setting [14]); 90% in [11] (Digitaria sanguinalis, post-emergence, 504 h, application rate 1280 g/ha, read-out: post-emergence activity against DIGSA in %); 90% in assay [9]; 90% in assay [10]. Also, the pest or weed control at 320 g/ha in assay [1] (Echinochloa crus-galli, pre-emergence, 504 h, application rate 320 g/ha, read-out: pre-emergence activity against ECHCG in %) is 100%; in [7] (Veronica persica, 504 h, application rate 320 g/ha, read-out: pre-emergence activity against VERPE in %), 90%; in [4] (application rate 320 g/ha), 90%. Also, in assay [3], the pest or weed control at 80 g/ha was 90%. For the same molecule, in assay [5] (application rate 320 g/ha), the percent crop plant damage at 320 g/ha stood at 0%.

In the case of `CCS(=O)(=O)N1CSc2cc(C)c(-c3ccccc3F)nc21` [Example I-060, 3-(ethylsulfonyl)-5-(2-fluorophenyl)-6-methyl-2,3-dihydro[1,3]thiazolo[4,5-b]pyridine], the pest or weed control at 1280 g/ha in assay [6] was determined as 90%; in assay [7] (setting [13]), 90%; in [8] (setting [14]) it was 100%; in [9], 90%. For the same molecule, the results for the pest or weed control at 80 g/ha in assay [1] (setting [12]), in [2] (application rate 80 g/ha) and in [4] were 100%, 80% and 100%, respectively. The pest or weed control at 320 g/ha in assay [3] (application rate 320 g/ha) was 90%; in assay [11] (Digitaria sanguinalis, post-emergence, 504 h, application rate 320 g/ha, read-out: post-emergence activity against DIGSA in %) it was 90%; in assay [10] (application rate 320 g/ha), 90%. Further, the percent crop plant damage at 80 g/ha in [5] stood at 0%.

`CC(C)C(=O)N1C[S+]([O-])c2cc(Br)c(-c3ccccc3)nc21` (stereo not drawn) [Example I-067]: the figures for the pest or weed control at 80 g/ha in assay [1] (setting [12]) and in assay [3] were 90% and 80%, respectively. Also, the results for the pest or weed control at 320 g/ha in assay [2] and in assay [4] (application rate 320 g/ha) were 90% and 80%, respectively. Further, the percent crop plant damage at 320 g/ha in [5] (application rate 320 g/ha) was 0%.

Take `Cc1cc2c(nc1-c1ccccc1F)N(C(=O)C1(C)CC(Cl)=NO1)CS2` (stereo not drawn) [Example I-083]: the “pre-emergence activity against ALOMY in %” value in assay [6] (application rate 320 g/ha) is on record as 100%. The “pre-emergence activity against ECHCG in %” value in [1] (application rate 80 g/ha) is given as 100%. Moreover, the “pre-emergence activity against VERPE in %” value in assay [7] (application rate 1280 g/ha) is 90%. The “post-emergence activity against VERPE in %” value in [2] (application rate 80 g/ha) worked out at 90%. For the same molecule, the “pre-emergence activity against SETVI in %” value in [8] (application rate 320 g/ha) is 100%. Besides, the “pre-emergence activity against AMARE in %” value in assay [3] (application rate 320 g/ha) was found to be 90%. Also, the “post-emergence activity against DIGSA in %” value in assay [11] (application rate 1280 g/ha) came out at 90%. For the same molecule, the “pre-emergence activity against LOLRI in %” value in [4] (application rate 320 g/ha) came out at 80%. For the same molecule, the “post-emergence activity against ECHCG in %” value in assay [9] amounted to 90%. Further, the “post-emergence activity against ORYZA in %” value in [5] (crop plant damage, application rate 320 g/ha) is on record as 10%. In addition, in assay [10] (application rate 320 g/ha), the “post-emergence activity against KCHSC in %” value is listed as 90%.
